Test results reported in ChEMBL document CHEMBL1201862, “PubChem BioAssay data set” (2004).
Calls of active or inactive are those of the source.

How the values were obtained:
[1] = target: Small ubiquitin-related modifier 1 (Homo sapiens, UniProt P63165); experiment: SUMO1 protein-protein binding blockers, potency – biochemical, FRET, dose response (AID 624383); format: functional; conditions: read-out: IC50_Mean
ORF 73 = ORF 73 (Human herpesvirus 8, UniProt O40947); experiment: KSHV LANA DNA-binding disruption – biochemical, fluorescence polarization, cherry-picked samples, dose response (AID 504725); design: species or system Human gammaherpesvirus 8;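 also: fluorescence polarization of a labeled DNA duplex reporting LANA DNA binding; potency is for inhibitors that block LANA binding to the DNA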
Sequence of ORF 73 (O40947 whole entry): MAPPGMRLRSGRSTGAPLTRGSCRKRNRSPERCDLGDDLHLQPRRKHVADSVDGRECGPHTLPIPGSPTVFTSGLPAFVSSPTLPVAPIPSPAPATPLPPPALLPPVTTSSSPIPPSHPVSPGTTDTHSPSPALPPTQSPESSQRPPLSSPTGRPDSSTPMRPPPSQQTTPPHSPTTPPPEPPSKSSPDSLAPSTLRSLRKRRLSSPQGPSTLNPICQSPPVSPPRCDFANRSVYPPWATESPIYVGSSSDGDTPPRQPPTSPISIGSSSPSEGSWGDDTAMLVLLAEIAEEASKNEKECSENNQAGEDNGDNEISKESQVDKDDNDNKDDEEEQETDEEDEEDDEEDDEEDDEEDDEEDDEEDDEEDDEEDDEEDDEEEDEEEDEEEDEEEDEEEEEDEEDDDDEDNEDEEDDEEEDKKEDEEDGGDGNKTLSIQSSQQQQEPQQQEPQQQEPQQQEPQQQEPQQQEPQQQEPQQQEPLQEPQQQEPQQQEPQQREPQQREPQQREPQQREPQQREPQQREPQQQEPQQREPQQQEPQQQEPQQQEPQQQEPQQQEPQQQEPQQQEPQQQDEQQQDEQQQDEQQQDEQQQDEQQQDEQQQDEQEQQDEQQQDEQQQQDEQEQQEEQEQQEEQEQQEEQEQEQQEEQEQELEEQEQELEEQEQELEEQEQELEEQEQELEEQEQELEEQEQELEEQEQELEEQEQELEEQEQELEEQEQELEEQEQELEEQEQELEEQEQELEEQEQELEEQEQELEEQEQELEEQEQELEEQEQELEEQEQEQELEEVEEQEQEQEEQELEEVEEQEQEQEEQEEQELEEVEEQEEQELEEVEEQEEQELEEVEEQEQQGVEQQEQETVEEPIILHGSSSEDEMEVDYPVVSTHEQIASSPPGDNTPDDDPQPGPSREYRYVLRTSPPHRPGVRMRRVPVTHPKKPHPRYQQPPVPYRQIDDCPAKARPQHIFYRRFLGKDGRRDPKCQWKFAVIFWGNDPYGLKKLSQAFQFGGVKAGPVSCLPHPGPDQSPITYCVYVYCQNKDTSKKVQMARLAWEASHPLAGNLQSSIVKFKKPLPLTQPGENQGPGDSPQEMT

[2] = target: T1, Rac GTPase-activating protein 1 (Homo sapiens, UniProt Q9H0H5); experiment: blockers of MgcRacGAP-driven Rac1 GTP hydrolysis – biochemical, ADP Hunter fluorescence, primary and confirmatory, confirmation (AID 624330); format: functional
T1 sequence (Q9H0H5 whole entry): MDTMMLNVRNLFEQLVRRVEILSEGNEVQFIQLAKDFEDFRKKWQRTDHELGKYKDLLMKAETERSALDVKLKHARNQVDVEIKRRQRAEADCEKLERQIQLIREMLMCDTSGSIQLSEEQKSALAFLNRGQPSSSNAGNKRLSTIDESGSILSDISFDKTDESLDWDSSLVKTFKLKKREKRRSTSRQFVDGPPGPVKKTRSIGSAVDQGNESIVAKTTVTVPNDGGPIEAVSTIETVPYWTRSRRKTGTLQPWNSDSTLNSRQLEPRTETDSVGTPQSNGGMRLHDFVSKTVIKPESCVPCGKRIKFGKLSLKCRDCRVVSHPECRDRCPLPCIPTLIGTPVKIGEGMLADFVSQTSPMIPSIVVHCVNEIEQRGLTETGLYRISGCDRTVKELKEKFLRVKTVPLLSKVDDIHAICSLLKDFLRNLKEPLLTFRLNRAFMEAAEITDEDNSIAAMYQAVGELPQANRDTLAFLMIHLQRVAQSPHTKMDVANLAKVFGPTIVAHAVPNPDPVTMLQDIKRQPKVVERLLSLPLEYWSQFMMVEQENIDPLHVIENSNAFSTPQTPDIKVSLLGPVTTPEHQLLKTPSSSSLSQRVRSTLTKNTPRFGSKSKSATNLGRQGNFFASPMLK

[3] = target: Sphingosine 1-phosphate receptor 1 (Homo sapiens, UniProt P21453); format: functional;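 also: Tango beta-arrestin reporter U2OS cells stimulated with S1P near its EC80; inhibitor potency meaning antagonism of receptor activation by the natural agonist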
Sequence of Sphingosine 1-phosphate receptor 1 (P21453 whole entry): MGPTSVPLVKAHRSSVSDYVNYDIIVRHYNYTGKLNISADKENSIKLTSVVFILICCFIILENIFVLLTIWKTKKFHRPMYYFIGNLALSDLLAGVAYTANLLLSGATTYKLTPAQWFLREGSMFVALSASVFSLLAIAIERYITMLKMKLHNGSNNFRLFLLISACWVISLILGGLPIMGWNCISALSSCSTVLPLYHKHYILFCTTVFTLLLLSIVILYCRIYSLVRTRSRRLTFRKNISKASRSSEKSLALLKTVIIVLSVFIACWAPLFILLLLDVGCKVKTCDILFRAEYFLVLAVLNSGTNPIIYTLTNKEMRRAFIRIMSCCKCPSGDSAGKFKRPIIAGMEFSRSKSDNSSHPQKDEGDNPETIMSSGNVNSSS

[4] = target: UDP-galactopyranose mutase (Mycobacterium tuberculosis, UniProt P9WIQ1); experiment: Inhibitors of Mycobacterium tuberculosis UDP-galactopyranose mutase (UGM) enzyme Measured in Biochemical System Using Plate Reader - 2105-02_Inhibitor_Dose_CherryPick_Activity. [Related pubchem assays (depositor defined):AID504439]
Sequence of UDP-galactopyranose mutase (P9WIQ1 whole entry): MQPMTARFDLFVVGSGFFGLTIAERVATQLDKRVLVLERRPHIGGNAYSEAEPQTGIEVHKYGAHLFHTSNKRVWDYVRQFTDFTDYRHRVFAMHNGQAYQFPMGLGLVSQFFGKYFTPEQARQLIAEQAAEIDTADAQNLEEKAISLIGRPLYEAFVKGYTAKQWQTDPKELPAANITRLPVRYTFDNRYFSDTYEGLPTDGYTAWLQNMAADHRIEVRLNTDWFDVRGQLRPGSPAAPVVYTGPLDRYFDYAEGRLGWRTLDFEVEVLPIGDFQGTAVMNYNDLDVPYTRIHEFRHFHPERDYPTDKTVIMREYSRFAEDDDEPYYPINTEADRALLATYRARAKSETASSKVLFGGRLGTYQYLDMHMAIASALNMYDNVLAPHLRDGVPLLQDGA

Hexokinase HKDC1 = target: T2, Hexokinase HKDC1 (Homo sapiens, UniProt Q2TB90); experiment: inhibition of HKDC1 glucose phosphorylation – biochemical, W721R variant, dose response (AID 504729); format: functional
T2 sequence (Q2TB90 whole entry): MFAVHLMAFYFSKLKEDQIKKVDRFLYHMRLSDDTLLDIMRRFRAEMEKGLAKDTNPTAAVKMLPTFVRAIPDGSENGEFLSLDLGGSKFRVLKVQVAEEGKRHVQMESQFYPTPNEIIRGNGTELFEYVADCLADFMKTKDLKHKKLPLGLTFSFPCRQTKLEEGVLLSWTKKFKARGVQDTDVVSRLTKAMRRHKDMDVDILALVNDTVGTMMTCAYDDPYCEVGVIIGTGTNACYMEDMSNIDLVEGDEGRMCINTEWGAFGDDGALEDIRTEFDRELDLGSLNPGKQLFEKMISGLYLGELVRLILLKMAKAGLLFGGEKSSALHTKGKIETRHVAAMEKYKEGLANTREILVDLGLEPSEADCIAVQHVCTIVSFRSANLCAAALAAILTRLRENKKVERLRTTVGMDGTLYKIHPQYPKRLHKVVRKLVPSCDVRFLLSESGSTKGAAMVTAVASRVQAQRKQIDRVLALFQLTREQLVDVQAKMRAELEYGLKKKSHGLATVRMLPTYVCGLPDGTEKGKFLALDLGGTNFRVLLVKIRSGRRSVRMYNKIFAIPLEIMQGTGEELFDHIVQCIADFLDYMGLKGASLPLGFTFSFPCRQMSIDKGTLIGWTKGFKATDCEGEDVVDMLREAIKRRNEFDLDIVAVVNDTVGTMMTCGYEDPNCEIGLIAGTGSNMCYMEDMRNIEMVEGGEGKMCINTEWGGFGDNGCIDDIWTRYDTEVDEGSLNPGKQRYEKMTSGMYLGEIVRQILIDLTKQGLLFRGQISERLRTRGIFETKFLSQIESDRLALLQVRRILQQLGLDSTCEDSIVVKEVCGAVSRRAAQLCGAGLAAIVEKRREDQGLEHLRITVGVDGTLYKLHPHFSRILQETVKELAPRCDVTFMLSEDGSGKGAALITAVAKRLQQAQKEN

[5] = Fluorescence-based biochemical high throughput screening dose response assay to identify inhibitors of Crimean-Congo Hemorrhagic Fever (CCHF) viral ovarian tumor domain protease (vOTU): Pep-AMC substrate.
[6] = target: T3, Mitochondrial peptide methionine sulfoxide reductase (Bos taurus, UniProt P54149); format: functional;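 also: absorbance read-out, biochemical high-throughput dose-response screen for MsrA inhibitors, confirmatory; recombinant bovine MsrA coupled to E. coli TrxB with NADPH and selenocystamine; potency is for inhibitors of MsrA activity on DMSO substrate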
T3 sequence (P54149 whole entry): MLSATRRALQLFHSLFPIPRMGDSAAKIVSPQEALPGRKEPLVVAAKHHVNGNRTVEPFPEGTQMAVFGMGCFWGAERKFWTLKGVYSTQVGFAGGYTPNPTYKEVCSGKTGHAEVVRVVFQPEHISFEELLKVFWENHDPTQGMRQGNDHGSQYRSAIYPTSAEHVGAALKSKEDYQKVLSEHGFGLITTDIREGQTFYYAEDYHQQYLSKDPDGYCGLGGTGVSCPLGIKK

[7] = luciferase reporter signal suppression in cells – H4 neuroglioma cells, luminescence, dose response (AID 1990); format: functional, cell-based
Streptococcus = experiment: GAS UMAA2166 growth inhibition – luminescence, BacTiterGlo, counter-screen for streptokinase expression inhibitor project, dose response (AID 1915); format: functional, organism-based;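 also: potency for reduction of bacterial viability or growth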
[8] = Luminescence Cell-Based Dose Response HTS to Identify Inhibitors of 5'UTR Stem-Loop Driven Prion Protein mRNA Translation in H4 Neuroglioblastoma Cells. [Related pubchem assays: 1827 (Project Summary), 1813 (Primary HTS)]; format: functional
[9] = alpha-synuclein stem-loop luciferase translation blockers – H4 neuroglioma cells, luminescence, confirmation (AID 1988); format: functional, cell-based
BJ = experiment: growth inhibition of engineered Ras-driven BJ cells – cell-based, alamar blue fluorescence, cherrypicked samples, dose response (AID 2631); format: functional; conditions: Homo sapiens;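 also: confirmatory dose-response assay in RAS-dependent BJ fibroblasts engineered with TERT, LT and ST, with cytotoxicity read by fluorescence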
[10] = activation of miR-122 Renilla sensor silencing – cell-based, Huh7 psiCHECK-miR122, Renilla luciferase, cherry-picked, dose response (AID 651956); format: functional;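 also: huh7 hepatoma cells stably carrying a psiCHECK-2 miR-122 sensor plasmid; renilla luciferase signal reporting endogenous miR-122 activity after 48 h compound exposure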
[11] = general mammalian cell viability loss – inhibitor set, cherry-pick, set 2, cytotoxicity control for miR-122 modulator project, dose response (AID 720697); format: functional, cell-based
[12] = fluconazole-exposed Candida albicans growth modulators – fluorescence, retest, confirmation (AID 2467); format: functional, cell-based
[13] = NIH3T3 cell viability loss – ATP luminescence, mouse fibroblasts, counter-screen, dose response (AID 2010); format: functional, cell-based;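 also: cells exposed to compound for about 90 hours before reading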

Sequence of Small ubiquitin-related modifier 1 (P63165 whole entry): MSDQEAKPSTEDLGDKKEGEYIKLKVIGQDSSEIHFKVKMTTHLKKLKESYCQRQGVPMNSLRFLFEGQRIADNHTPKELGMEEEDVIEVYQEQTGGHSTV

For `COc1cc(-c2ccc(Nc3ccccc3C(=O)O)c(OC)c2)ccc1Nc1ccccc1C(=O)O`, the IC50 [1] was 3.9 µM (active), the AC50 (ORF 73) was 78.9 µM (active) and the IC50 [2] was 41.4 µM (active).

In the case of `COC(CNC(=O)c1ccc2c3c(onc13)-c1ccccc1C2=O)OC`, the IC50 [3] is reported as 15.1 µM (not active) and the AC50 [4] is reported as 2.79 µM (active).

In the case of `O=C(O)c1ccc(NC2=C/C(=N/S(=O)(=O)c3ccccc3)c3ccccc3C2=O)cc1`, the IC50 (Hexokinase HKDC1) is reported as 2.74 µM (active), the IC50 [5] is reported as > 0.157 µM (active) and the IC50 [6] is reported as 6.42 µM (active).

For `Nc1ccc2c(c1)C(=O)C(=O)c1ccccc1-2`, the EC50 [7] was > 120 µM (not active), the EC50 (Streptococcus) was 4.95 µM (active) and the EC50 [8] was 8.68 µM (inconclusive). The EC50 [9] was > 120 µM (not active), the EC50 (BJ) was 2.8 µM (active) and the AC50 [10] was 10.7 µM (active). The AC50 [11] was 2.19 µM (active).

In the case of `CCCC(=O)NC(c1ccccc1OC)c1ccc2cccnc2c1O` (configuration not stated), the EC50 [12] is reported as 0.476 µM (active) and the EC50 [13] is reported as 1.55 µM (active).
